Bridge positions count the residues as written; N and C are the ends. Square brackets hold non-standard residues; d marks the D form. Ends that are not written are not given here. Peptide text beside a SMILES is read from it. S5 = C=CCCC[C@](C)(N)C(=O)O
Legend:
[1] = test system: Neh1 domain of NRF2; conditions: cited from earlier work
[2] = test system: non-small cell lung cancer (NSCLC) cells; conditions: cited from earlier work
[3] = test system: MAFG-NRF2 protein complex; conditions: cited from earlier work
[4] = test system: A549 cells; assay: Confocal microscopy of FITC-labeled peptides, cell permeability; assay type: cell-based; conditions: FITC-labeled peptide, 100 μM, 90 minutes, A549 cells
Description: To determine whether this was a result of poor cell permeability by compounds N2S and N3S, fluorophore labeled versions of these peptides were generated, and confocal microscopy was used to determine the abilities of these peptides to enter cells (FIG. 5C).
Briefly, A549 cells at 9.5×10^4 cells/ml in 600 μl media were plated on 10 mm glass-bottomed, 24-well plates (Chemglass Life Sciences Cell Culture Plate, 24-Well, Fisher Scientific, Waltham, MA) and cultured for overnight at 37 °C, 5% CO2, in complete growth medium (RPMI supplemented with 10% fetal calf serum, L-glutamine, and non-essential amino acids). The next day, cells were treated with fresh, pre-warmed complete growth medium supplemented with the desired FITC-labeled peptide or DMSO vehicle control at a final concentration of 100 μM FITC labeled peptide and 1% DMSO. After 90 minutes of treatment, cells were washed three times in warm PBS to remove excess peptide from the cell surface and left in modified Krebs-Ringer buffer solution [KRBH: 134 mM NaCl. 3.5 mM KCl. 1.2 mM KH2PO4, 0.5 mM MgSO4, 1.5 mM CaCl2), 5 mM NaHCO3, 10 mM HEPES (pH 7.4)] containing Hoechst stain at 1 μg/ml. Cells were immediately analyzed under a Nikon A1 confocal microscope (Resonant). The images were taken at 20× magnification with fluorescence excitation wavelengths at 409 for the Hoechst and 488 for the FITC. Images were processed using NIS-Elements AR. Dietrich et al., Cell permeable stapled peptide inhibitor of Wnt signaling that targets 0-catenin protein-protein interactions, Cell Chemical Biology 24(8): 958-968.e5 (2017); Dougherty et al., Enhancing the cell-permeability of stapled peptides with a cyclic cell-penetrating peptide, J Medicinal Chemistry 62(22): 10098 (2019).

[5] = test system: proteinase K; assay: Proteinase K peptide stability assay; conditions: 10 μg/mL proteinase K
Description: Data are from three independent replicates with standard error indicated. Scale bar indicates 50 μm.
Peptide stability assays were performed using the protocols described in Cromm et al., Protease-resistant and cell-permeable double-stapled peptides targeting the Rab8a GTPase, ACS Chemical Biology 11(8): 2375-2382 (2016). Briefly, 55 μM of peptide was incubated with 10 μg/mL proteinase K for the indicated timepoints. At the end of each time point, 50 μL of the reaction mixture were quenched in 100 μL of a 1:1 mixture acetonitrile/water+1% formic acid (FA). Samples were injected and analyzed on a Triple quad. Analysis was done using an Agilent Technologies 1200 Series attached to an Agilent Technologies 6460 Triple Quad LC/MS. Analysis was performed with a ZORBAX XDB-C18 […], 2.1×50 mm column (Agilent Technologies, Inc., Santa Clara, CA). Eluent A: H2O with 0.1% FA. Eluent B: MeCN with 0.1% FA. Purity analysis utilized the gradient as follows: (A:B, 0.3 mL/min): 95:5, 0 minutes; 95:5, 1 minute; 5:95, 5 minutes; 5:95, 8 minutes: 95:5, 8.5 minutes; 95:5, 12.5 minutes.

[6] = target: T1, His-MafG; assay: SPR, pH 7.5
T1 chain: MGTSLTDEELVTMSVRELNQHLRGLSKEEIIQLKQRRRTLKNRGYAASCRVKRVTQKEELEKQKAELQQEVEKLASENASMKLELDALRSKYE

Cc1ccccc1C(=O)N1CCc2cc(-c3nc(NC(=O)Cc4ccc5c(c4)OCO5)sc3C)ccc21 [ML-385]
binding to the Neh1 domain of NRF2 [1]: binds to the Neh1 domain of NRF2 | cytotoxicity in combination with platinum-based drugs, doxorubicin or taxol [2]: substantially enhances cytotoxicity | binding of MAFG-NRF2 complex to regulatory DNA and downstream target gene expression [3]: inhibiting downstream target gene expression

CC(=O)N[C@@H](CC(=O)O)C(=O)N[C@@H](CC(C)C)C(=O)N[C@@H](CC(=O)O)C(=O)N[C@@H](Cc1c[nH]cn1)C(=O)N[C@@H](CC(C)C)C(=O)N[C@@]1(C)CCCC=CCCC[C@@](C)(C(=O)N[C@@H](CCCCN)C(=O)N[C@@H](CC(C)C)C(=O)N[C@@H](CC(C)C)C(=O)N[C@@H](CCCCN)C(=O)N[C@@H](CCC(=O)O)C(=O)N[C@@H](CCCCN)C(N)=O)NC(=O)[C@H](CCCCN)NC(=O)[C@H](CCC(=O)O)NC(=O)[C@H](CC(=O)O)NC1=O [N2S] (Ac-DLDHL[S5]DEK[S5]KLLKEK-NH2; staple 6-10)
cellular and nuclear permeability [4]: good | time at which significant degradation starts ([5]; 55 μM peptide): 40 min

CC(=O)N[C@@H](CC(=O)O)C(=O)N[C@@H](CCC(=O)O)C(=O)N[C@@H](CCCCN)C(=O)N[C@@H](CCC(=O)O)C(=O)N[C@@H](CCCCN)C(=O)N[C@@H](CC(C)C)C(=O)N[C@@]1(C)CCCC=CCCC[C@@](C)(C(=O)N[C@@H](CCC(=O)O)C(=O)N[C@@H](CC(N)=O)C(=O)N[C@@H](CC(=O)O)C(=O)N[C@@H](CCCCN)C(=O)N[C@@H](CO)C(N)=O)NC(=O)[C@H](CCCCN)NC(=O)[C@H](CCC(=O)O)NC(=O)[C@H](CCCCN)NC1=O [N3S] (Ac-DEKEKL[S5]KEK[S5]ENDKS-NH2; staple 7-11)
accumulation in the nucleus [4]: very little to no accumulation | cellular permeability [4]: minimal | degradation by proteinase K ([5]; for up to 24 hours, 55 μM peptide): no significant degradation

Ac-DEKEKLLKEKGENDKS-NH2 [N3]
degradation of unstapled peptide at shortest timepoint ([5]; 30 minutes): completely degraded

Ac-IVELEQDLDHLKDEKE-NH2 [N1]
cellular permeability [4]: poor

IVELE[S5]DLD[S5]LKDEKE (staple 6-10; also: biotin-labeled) [N1S (biotin-labeled)]
Kd [6]: 337 nM

From patent US20260365698A1, “STAPLED PEPTIDES FOR SENSITIZATION OF CANCER TO TREATMENT” (Purdue Research Foundation, priority 2022, published 2026)
